Test results as given in PubChem BioAssay AID2060905 (Molecular Pharmacology Branch, DTP, NCI, 2025).

Tested on: 282377-053-R-J1-PDC complex spheroid viability
Assay: Anticancer human tumor 282377-053-R-J1-PDC patient-derived colon adenocarcinoma cell line growth inhibition [RAS]
Conditions: for IC50: curve of first compound; for viability, T/C: stronger effect = lower value
Source text: RAS pathway inhibitors in Combinations in Complex Spheroids
A high-throughput screen of multi-cell type tumor spheroids was designed to identify active combinations of RAS pathway inhibitors and targeted small molecules. Complex spheroids include a stromal component modeled by human endothelial cells (HUVEC) and fibroblasts modeled by human mesenchymal stem cells (MSCs). The concentration ranges selected for each drug and investigational agent were based upon clinically achievable concentrations if the clinical Cmax of the agent was known.
Compounds. The drugs and investigational agents: abemaciclib (NSC768073), cobimetinib (NSC768068), divarasib (GDC6063, NSC841802), docetaxel (NSC628503), GDC-1971 (RLY-1971, NSC841576), gemcitabine (NSC613327), inavolisib (NSC800729), ipatasertib (NSC767898), KB-0742 (NSC834161), MRTX-1133 (NSC836407), osimertinib (NSC779217), RMC-4630 (NSC839698), RMC-6236 (NSC851965), RMC-6291 (NSC852671), Ro-3306 (NSC812927), sapanisertib (NSC764658), SN-38 (NSC673596), staurosporine (NSC755774), SY5609 (NSC837396), and tovorafenib (DAY101, NSC766906), were obtained from the National Cancer Institute (NCI) Developmental Therapeutics Program Chemical Repository. The FDA-approved anticancer drug set is available from the NCI Developmental Therapeutics Program. […] The stock solutions were prepared in dimethyl sulfoxide (DMSO, Sigma-Aldrich, St. Louis, MO, cat. D2650) at 800-fold the tested concentration and stored at -70 degrees C prior to their use. All drugs and investigational agents were tested over a range starting from a high concentration at or near the clinical Cmax and decreasing in half-log increments. If the clinical Cmax for an agent had not been determined, the highest concentration tested was 10 microM.
Cell Culture. All cells were maintained in an incubator at 37 degrees C and 5% CO2 with 95% humidity. The PDC lines were cultured according to standard operating procedures established by the NCI PDMR. All PDCs were thawed and cultured in Matrigel-coated flasks prepared with a working solution of 1X Ham's F-12 nutrient mix, without supplementation (Invitrogen, Waltham, MA, cat. 11765054), 100 U/mL penicillin-streptomycin (Invitrogen, cat. 15140122), and 2.5% Matrigel (Corning Inc., Corning, NY, cat. 354248) for the first three passages. The 362531-283-R-J2-PDC and 782815-120-R-J1-PDC lines were cultured in 6C/Colon 1B media, which includes advanced DMEM/F-12 (Thermo Fisher Scientific, cat. 12634028), 10 mM HEPES (Thermo Fisher Scientific, cat. 15630080), 1X GlutaMAX supplement (Thermo Fisher Scientific, cat. 35050061), 0.1 mg/mL primocin (InvivoGen, San Diego, CA, cat. ant-pm-2), 10% defined fetal bovine serum, heat inactivated (HyClone Laboratories Inc., Logan, UT, cat. SH30070.03HI), 50% L-WRN conditioned media (ATCC, cat. CRL-3276), 1.25 mM N-Acetyl-L-cysteine (Sigma-Aldrich, cat. A9165), 10 mM nicotinamide (Sigma-Aldrich, cat. N0636), 1X B-27 supplement (Thermo Fisher Scientific, cat. 17504044), 1X N-2 supplement (Thermo Fisher Scientific, cat. 17502048), 50 ng/mL human EGF (Thermo Fisher Scientific, cat. PHG0311), and 10 microM Y-27632 dihydrochloride (Tocris Bioscience, cat. 1254). The K12877-001-R-J1-PDC line was cultured in 6I media, which includes all 6C/Colon 1B media plus 10 ng/mL human FGF-10 (PeproTech, cat. 100-26), 1 ng/mL human FGF-2 (PeproTech, cat. 100-18B), 1 µM prostaglandin E2 (Tocris Bioscience, cat. 2296), […] hydrocortisone (Sigma-Aldrich, cat. H4001), and […] bovine insulin (Sigma-Aldrich, cat. I6634). The K86415-001-R-J1-PDC line was cultured in 6D media, which includes all 6C/Colon 1B media components minus the L-WRN conditioned media. The 485176-168-R4-J1-PDC was cultured in PANC media, which includes all 6C/Colon 1B media plus 100 ng/mL human FGF-10 (PeproTech, cat. 100-26), 500 nM SB-431542 (Selleckchem, cat. S1067), and 10 nM gastrin (Tocris Bioscience, cat. 3006). […]

[1] = second compound 0.0316 µM, first compound 0.0316 µM
[2] = second compound 0.0316 µM, first compound 0.1 µM
[3] = second compound 0.0316 µM, first compound 0.316 µM
[4] = second compound 0.0316 µM, first compound 1 µM
[5] = second compound 0.0316 µM, first compound 3.16 µM
[6] = second compound 0.0316 µM, first compound 10 µM
[7] = second compound 0.1 µM, first compound 0.0316 µM
[8] = second compound 0.1 µM, first compound 0.1 µM
[9] = second compound 0.1 µM, first compound 0.316 µM
[10] = second compound 0.1 µM, first compound 1 µM
[11] = second compound 0.1 µM, first compound 3.16 µM
[12] = second compound 0.1 µM, first compound 10 µM
[13] = second compound 0.316 µM, first compound 0.0316 µM
[14] = second compound 0.316 µM, first compound 0.1 µM
[15] = second compound 0.316 µM, first compound 0.316 µM
[16] = second compound 0.316 µM, first compound 1 µM
[17] = second compound 0.316 µM, first compound 3.16 µM
[18] = second compound 0.316 µM, first compound 10 µM
[19] = second compound 1 µM, first compound 0.0316 µM
[20] = second compound 1 µM, first compound 0.1 µM
[21] = second compound 1 µM, first compound 0.316 µM
[22] = second compound 1 µM, first compound 1 µM
[23] = second compound 1 µM, first compound 3.16 µM
[24] = second compound 1 µM, first compound 10 µM
[25] = second compound 3.16 µM, first compound 0.0316 µM
[26] = second compound 3.16 µM, first compound 0.1 µM
[27] = second compound 3.16 µM, first compound 0.316 µM
[28] = second compound 3.16 µM, first compound 1 µM
[29] = second compound 3.16 µM, first compound 3.16 µM
[30] = second compound 3.16 µM, first compound 10 µM
[31] = second compound 10 µM, first compound 0.0316 µM
[32] = second compound 10 µM, first compound 0.1 µM
[33] = second compound 10 µM, first compound 0.316 µM
[34] = second compound 10 µM, first compound 1 µM
[35] = second compound 10 µM, first compound 3.16 µM
[36] = second compound 10 µM, first compound 10 µM
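Also: spheroids exposed to agents for seven days before readout.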
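For viability, T/C in this document: luminescence viability as percent of DMSO vehicle control wells.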

CC(C)NCC(C(=O)N1CCN(c2ncnc3c2C(C)CC3O)CC1)c1ccc(Cl)cc1 (centres undefined) + C#Cc1c(F)ccc2cc(O)cc(-c3ncc4c(N5CC6CCC(C5)N6)nc(OCC56CCCN5CC(F)C6)nc4c3F)c12
IC50 (second compound 0.0316 µM): > 10 µM
IC50 (second compound 0.1 µM): > 10 µM
IC50 (second compound 0.316 µM): > 10 µM
IC50 (second compound 1 µM): > 10 µM
IC50 (second compound 3.16 µM): > 10 µM
IC50 (second compound 10 µM): > 10 µM
viability, T/C [1]: 133%
viability, T/C [2]: 111%
viability, T/C [3]: 88.9%
viability, T/C [4]: 94.6%
viability, T/C [5]: 84.1%
viability, T/C [6]: 82.3%
viability, T/C [7]: 88.5%
viability, T/C [8]: 86.5%
viability, T/C [9]: 76.9%
viability, T/C [10]: 90.3%
viability, T/C [11]: 83.5%
viability, T/C [12]: 72.2%
viability, T/C [13]: 104%
viability, T/C [14]: 110%
viability, T/C [15]: 92.8%
viability, T/C [16]: 83%
viability, T/C [17]: 85.9%
viability, T/C [18]: 85.3%
viability, T/C [19]: 105%
viability, T/C [20]: 79.8%
viability, T/C [21]: 89.2%
viability, T/C [22]: 82.5%
viability, T/C [23]: 63.7%
viability, T/C [24]: 69.5%
viability, T/C [25]: 98.5%
viability, T/C [26]: 96.7%
viability, T/C [27]: 81.4%
viability, T/C [28]: 77.7%
viability, T/C [29]: 92.1%
viability, T/C [30]: 70.4%
viability, T/C [31]: 83%
viability, T/C [32]: 87.7%
viability, T/C [33]: 88.9%
viability, T/C [34]: 91.4%
viability, T/C [35]: 86.4%
viability, T/C [36]: 72.4%

CC(Nc1ccc2c(c1)OCCn1cc(N3C(=O)OCC3C(F)F)nc1-2)C(N)=O (centres undefined) + C#Cc1c(F)ccc2cc(O)cc(-c3ncc4c(N5CC6CCC(C5)N6)nc(OCC56CCCN5CC(F)C6)nc4c3F)c12
IC50 (second compound 0.0316 µM): > 10 µM
IC50 (second compound 0.1 µM): > 10 µM
IC50 (second compound 0.316 µM): > 10 µM
IC50 (second compound 1 µM): > 10 µM
IC50 (second compound 3.16 µM): > 10 µM
IC50 (second compound 10 µM): > 10 µM
viability, T/C [1]: 109%
viability, T/C [2]: 84.6%
viability, T/C [3]: 88.8%
viability, T/C [4]: 96%
viability, T/C [5]: 90.2%
viability, T/C [6]: 72.8%
viability, T/C [7]: 101%
viability, T/C [8]: 85.7%
viability, T/C [9]: 93.1%
viability, T/C [10]: 97.3%
viability, T/C [11]: 91.1%
viability, T/C [12]: 72.6%
viability, T/C [13]: 131%
viability, T/C [14]: 92.7%
viability, T/C [15]: 78.2%
viability, T/C [16]: 104%
viability, T/C [17]: 74.7%
viability, T/C [18]: 96.1%
viability, T/C [19]: 95.7%
viability, T/C [20]: 97.8%
viability, T/C [21]: 98.7%
viability, T/C [22]: 100%
viability, T/C [23]: 88.5%
viability, T/C [24]: 93.3%
viability, T/C [25]: 90.5%
viability, T/C [26]: 88.8%
viability, T/C [27]: 88.3%
viability, T/C [28]: 77.5%
viability, T/C [29]: 76.6%
viability, T/C [30]: 76.9%
viability, T/C [31]: 102%
viability, T/C [32]: 101%
viability, T/C [33]: 97%
viability, T/C [34]: 81.2%
viability, T/C [35]: 90%
viability, T/C [36]: 78.5%
